melting point: 184 to 186 °C
SMILES: CC(C)c1nc2c(c(-c3ccc(F)cc3)c1/C=C/[C@@H](O)C[C@@H](O)CC(=O)O)CCCN2S(C)(=O)=O [Example 22, (E)-(3R,5S)-7-[4-(4-Fluorophenyl)-2-isopropyl-8-methanesulfonyl-5,6,7,8-tetrahydro-[1,8]naphthyridin-3-yl]-3,5-dihydroxyhept-6-enoic Acid]

— US7420059B2, “HMG-CoA reductase inhibitors and method” (Bristol-Myers Squibb Company, priority 2003, dated 2008)
